Source: patent US9061030B2, “sGC stimulators” (IRONWOOD PHARMACEUTICALS, INC., priority 2010, dated 2015)

Target: T1, Human soluble guanylate cyclase enzyme (hsGC) (Homo sapiens, UniProt Q02108+Q02153)
T1 construct: purchased Enzo Inc. ALX-201-177
T1 sequence (Q02153 1-619): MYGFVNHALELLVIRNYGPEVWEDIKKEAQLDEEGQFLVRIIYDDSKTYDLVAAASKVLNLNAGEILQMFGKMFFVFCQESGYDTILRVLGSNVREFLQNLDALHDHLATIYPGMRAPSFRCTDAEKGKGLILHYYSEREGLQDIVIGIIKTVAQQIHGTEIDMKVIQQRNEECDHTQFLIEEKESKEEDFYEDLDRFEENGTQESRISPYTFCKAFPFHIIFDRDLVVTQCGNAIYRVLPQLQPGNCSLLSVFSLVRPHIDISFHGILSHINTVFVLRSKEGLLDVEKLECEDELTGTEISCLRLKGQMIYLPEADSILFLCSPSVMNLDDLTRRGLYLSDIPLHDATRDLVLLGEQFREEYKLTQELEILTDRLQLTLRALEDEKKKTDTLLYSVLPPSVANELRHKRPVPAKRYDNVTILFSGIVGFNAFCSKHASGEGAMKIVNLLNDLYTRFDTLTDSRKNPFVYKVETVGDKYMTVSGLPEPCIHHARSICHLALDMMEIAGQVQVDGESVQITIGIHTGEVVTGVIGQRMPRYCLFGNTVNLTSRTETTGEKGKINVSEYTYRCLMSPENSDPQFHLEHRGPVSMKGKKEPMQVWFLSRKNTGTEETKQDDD
T1 sequence (Q02108 1-690): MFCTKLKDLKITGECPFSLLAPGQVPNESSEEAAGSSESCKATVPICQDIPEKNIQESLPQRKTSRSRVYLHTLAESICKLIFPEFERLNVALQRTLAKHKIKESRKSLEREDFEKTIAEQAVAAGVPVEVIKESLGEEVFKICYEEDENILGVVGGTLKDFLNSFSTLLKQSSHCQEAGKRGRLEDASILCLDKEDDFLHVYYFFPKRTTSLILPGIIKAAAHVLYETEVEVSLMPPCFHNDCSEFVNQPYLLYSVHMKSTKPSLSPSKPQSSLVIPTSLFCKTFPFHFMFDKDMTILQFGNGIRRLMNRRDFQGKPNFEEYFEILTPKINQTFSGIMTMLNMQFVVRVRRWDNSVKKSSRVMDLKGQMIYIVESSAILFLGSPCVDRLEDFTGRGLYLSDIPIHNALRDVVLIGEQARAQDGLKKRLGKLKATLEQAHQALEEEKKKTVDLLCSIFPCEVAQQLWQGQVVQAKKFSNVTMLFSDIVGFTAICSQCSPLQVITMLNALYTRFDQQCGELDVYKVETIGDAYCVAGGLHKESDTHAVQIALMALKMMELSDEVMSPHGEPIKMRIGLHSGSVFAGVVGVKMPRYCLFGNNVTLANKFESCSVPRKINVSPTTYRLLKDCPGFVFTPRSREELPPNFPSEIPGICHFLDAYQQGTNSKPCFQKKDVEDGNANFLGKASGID
Assay: Purified human sGC enzyme activity assay (with or without SNP)
Assay type: biochemical
Settings: for sGC Enzyme Activity Increase at 30 μM with SNP / sGC Enzyme Activity Increase at 30 μM without SNP: 30 μM compound
How it was run: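 Purified human sGC (5 ng) incubated 30 min at 37° C with compound at 10 or 30 μM, 300 μM GTP, 2 mM MgCl2 and 1 mM IBMX at pH 8.0, with or without 1 μM SNP. cGMP formed was quantified against a standard curve. Results are given as fold-change in specific activity over DMSO (or DMSO+SNP) control.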

[1] = 1 μM SNP, specific activity vs DMSO and SNP
[2] = without SNP, specific activity vs DMSO control

| SMILES | sGC Enzyme Activity Increase at 10 μM with SNP (10 μM compound, 1 μM SNP, specific activity vs DMSO and SNP) | sGC Enzyme Activity Increase at 10 μM without SNP (10 μM compound, without SNP, specific activity vs DMSO control) | sGC Enzyme Activity Increase at 30 μM with SNP [1] | sGC Enzyme Activity Increase at 30 μM without SNP [2] |
| --- | --- | --- | --- | --- |
| Fc1ccccc1Cn1nc(-c2ccccn2)nc1-c1ccccn1 [Compound I-1] | B (B = 1 to <2 fold increase) | B (B = 1 to <2 fold increase) | C (C = 2 to <5 fold increase) | C (C = 2 to <5 fold increase) |
| Fc1ccccc1Cn1nc(-c2ncccn2)nc1-c1cscn1 [Compound I-3] | – | – | D (D = 5 to <10 fold increase) | B (B = 1 to <2 fold increase) |
| Fc1ccccc1Cn1nc(-c2ccccn2)nc1-c1cscn1 [Compound I-4] | – | – | E (E = 10 to <20 fold increase) | C (C = 2 to <5 fold increase) |
| Fc1ccccc1Cn1nc(-c2ccccn2)nc1-c1ncco1 [Compound I-6] | – | – | D (D = 5 to <10 fold increase) | D (D = 5 to <10 fold increase) |
| Fc1ccccc1Cn1nc(-c2ccccn2)nc1-c1cocn1 [Compound I-12, 4-(1-(2-fluorobenzyl)-3-(pyridin-2-yl)-1H-1,2,4-triazol-5-yl)oxazole] | – | – | E (E = 10 to <20 fold increase) | C (C = 2 to <5 fold increase) |
| Fc1ccccc1Cn1nc(-c2ccccn2)nc1-c1nccs1 [Compound I-25] | – | – | E (E = 10 to <20 fold increase) | D (D = 5 to <10 fold increase) |
| Fc1ccccc1Cn1nc(-c2ncccn2)nc1-c1nccs1 [Compound I-30] | – | – | C (C = 2 to <5 fold increase) | B (B = 1 to <2 fold increase) |
| Fc1ccc(-c2nc(-c3nccs3)n(Cc3ccccc3F)n2)nc1 [Compound I-38] | – | – | E (E = 10 to <20 fold increase) | C (C = 2 to <5 fold increase) |
| Fc1ccccc1Cn1nc(-c2cscn2)nc1-c1nccs1 [Compound I-40] | – | – | D (D = 5 to <10 fold increase) | B (B = 1 to <2 fold increase) |
| Fc1ccccc1Cn1nc(-c2nccs2)nc1-c1cscn1 [Compound I-41] | – | – | E (E = 10 to <20 fold increase) | C (C = 2 to <5 fold increase) |
| Nc1ccnc(-c2nc(-c3nccs3)n(Cc3ccccc3F)n2)c1 [Compound I-44] | – | – | F (F = 20 to <50 fold increase) | D (D = 5 to <10 fold increase) |
| Fc1ccccc1Cn1nc(-c2ncccn2)nc1-c1cocn1 [Compound I-46] | – | – | C (C = 2 to <5 fold increase) | B (B = 1 to <2 fold increase) |
| Nc1ccnc(-c2nc(-c3nccs3)n(Cc3ccccc3F)n2)n1 [Compound I-48, 2-(1-(2-fluorobenzyl)-5-(thiazol-2-yl)-1H-1,2,4-triazol-3-yl)pyrimidin-4-amine] | – | – | D (D = 5 to <10 fold increase) | C (C = 2 to <5 fold increase) |
| Fc1ccccc1Cn1nc(-c2ccccn2)nc1-n1cncn1 [Compound I-50, 2′-(2-fluorobenzyl)-5′-(pyridin-2-yl)-2′H-1,3′-bi(1′,2′,4-triazole)] | – | – | C (C = 2 to <5 fold increase) | B (B = 1 to <2 fold increase) |
| Nc1ccnc(-c2nc(-c3cscn3)n(Cc3ccccc3F)n2)c1 [Compound I-53, 2-(1-(2-fluorobenzyl)-5-(thiazol-4-yl)-1H-1,2,4-triazol-3-yl)pyridin-4-amine] | – | – | F (F = 20 to <50 fold increase) | D (D = 5 to <10 fold increase) |
| COC(=O)N(C)c1c(N)nc(-c2nc(-c3nccs3)n(Cc3ccccc3F)n2)nc1N [Compound I-61, methyl 4,6-diamino-2-(1-(2-fluorobenzyl)-5-(thiazol-2-yl)-1H-1,2,4-triazol-3-yl)pyrimidin-5-yl(methyl)carbamate] | – | – | D (D = 5 to <10 fold increase) | C (C = 2 to <5 fold increase) |
